Source: ChEMBL document CHEMBL1201862, “PubChem BioAssay data set” (2004)
Blank lines part the entries; values can stand above or below the compound they belong to. The source made the active and inactive calls.

Key:
[1] = biological target: Nucleotide-binding oligomerization domain-containing protein 2 (Homo sapiens, UniProt Q9HC29); assay: NOD2 signaling inhibitors, cell-based, luminescence, uHTS, HEK293 (AID 1566); assay type: functional
[2] = tested on: INS1; assay: beta cell apoptosis inhibitors, cytokine rescue, dose response, luminescence, retest (AID 449756); assay type: functional, cell-based; details: Rattus norvegicus;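 further: cell death triggered by IL-1 beta plus TNF-alpha plus IFN-gamma mixture; protective hits raise ATP signal compared with cytokine alone wells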
[3] = biological target: Neurotensin receptor type 1 (Homo sapiens, UniProt P30989); assay type: functional;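 further: Image-based confirmatory dose-response assay measuring agonist activity at NTR1; NTR1-expressing U2OS osteosarcoma cells imaged for beta-arrestin GFP spot formation; agonist potency where compounds increase beta-arrestin recruitment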
Neurotensin receptor type 1, sequence (P30989 whole entry): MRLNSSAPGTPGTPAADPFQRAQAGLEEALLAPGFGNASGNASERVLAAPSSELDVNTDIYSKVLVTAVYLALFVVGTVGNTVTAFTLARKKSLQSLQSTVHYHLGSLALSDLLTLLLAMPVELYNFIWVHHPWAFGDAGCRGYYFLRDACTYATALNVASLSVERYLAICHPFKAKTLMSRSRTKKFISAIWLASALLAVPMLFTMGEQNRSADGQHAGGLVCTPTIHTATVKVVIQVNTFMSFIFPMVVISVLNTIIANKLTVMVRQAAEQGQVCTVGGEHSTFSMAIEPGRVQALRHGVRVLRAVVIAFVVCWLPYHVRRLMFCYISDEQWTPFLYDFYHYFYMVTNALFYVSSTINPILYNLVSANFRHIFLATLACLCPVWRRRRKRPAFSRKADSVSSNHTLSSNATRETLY

[4] = inhibitors of intracellular T. cruzi replication, confirmation, NIH3T3 host cells, beta-gal luminescence (AID 2044); assay type: functional, cell-based;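 further: intracellular parasites grown in NIH/3T3 mouse fibroblasts as host cells; luminescent beta-galactosidase reporter signal from transgenic T. cruzi replicating inside host cells; inhibitors lower the luminescence signal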
[5] = tested on: HEK293; assay: NOD1 signaling inhibitors, primary screen, cell-based, luminescence, uHTS (AID 1578); assay type: functional; details: Homo sapiens
[6] = tested on: HEK293; assay: cells; assay type: functional, cell-based; details: Homo sapiens
[7] = growth suppression of beta-catenin-knockout colon cells, dose response, cell-based, HCT116, human colon tumor (AID 1045); assay type: functional;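 further: HCT116 colon tumor cells with beta catenin knocked out; cells exposed to compound for 60 hours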
[8] = tested on: HEK293; assay: cells; assay type: functional, cell-based; details: Homo sapiens; remark: listed apart in the source
[9] = tested on: HEK293; assay: cells; assay type: functional, cell-based; details: Homo sapiens; remark: listed apart in the source
[10] = Luminescence Cell-Based Dose Retest to Confirm Inhibitors of Cancer Stem Cells. [Related pubchem assays (depositor defined):AID2717, AID2721]; assay type: functional; details: Homo sapiens
[11] = tested on: HEK293; assay: NOD2 signaling inhibitors in MDP-stimulated cells, cell-based, uHTS, luminescence (AID 2001); assay type: functional; details: Homo sapiens
[12] = growth suppression of PTEN-null colon cells, dose response, cell-based, HCT116 PTEN knockout (AID 1047); assay type: functional;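 further: HCT116 colon tumor cells with PTEN knocked out; cells exposed to compound for 60 hours before readout; potency for loss of cell viability measured by luminescence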
[13] = biological target: T1, Estrogen receptor (Homo sapiens, UniProt P03372);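 further: potency for inhibiting coactivator peptide recruitment to the receptor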
T1 sequence (P03372 whole entry): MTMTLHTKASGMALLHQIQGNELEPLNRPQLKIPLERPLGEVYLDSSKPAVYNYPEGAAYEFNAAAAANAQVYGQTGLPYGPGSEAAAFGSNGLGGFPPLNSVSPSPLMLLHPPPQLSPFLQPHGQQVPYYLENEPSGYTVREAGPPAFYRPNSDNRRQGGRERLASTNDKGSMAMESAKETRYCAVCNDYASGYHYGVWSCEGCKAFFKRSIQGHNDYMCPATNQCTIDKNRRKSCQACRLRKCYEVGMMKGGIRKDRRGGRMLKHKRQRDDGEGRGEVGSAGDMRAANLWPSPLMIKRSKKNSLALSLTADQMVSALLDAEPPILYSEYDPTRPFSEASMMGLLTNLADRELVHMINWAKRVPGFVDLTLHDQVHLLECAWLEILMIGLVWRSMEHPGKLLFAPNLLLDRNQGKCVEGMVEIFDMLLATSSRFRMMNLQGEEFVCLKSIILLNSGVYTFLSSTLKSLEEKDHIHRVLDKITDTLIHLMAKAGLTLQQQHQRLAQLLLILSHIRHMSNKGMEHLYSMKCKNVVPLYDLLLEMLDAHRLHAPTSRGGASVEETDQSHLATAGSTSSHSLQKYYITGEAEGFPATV

[14] = biological target: G-protein coupled receptor 55 (Homo sapiens, UniProt Q9Y2T6); assay: GPR55 agonists via beta-arrestin recruitment, primary screen, imaging, U2OS cells, beta-arrestin-GFP redistribution (AID 1961); assay type: functional
G-protein coupled receptor 55, sequence (Q9Y2T6 whole entry): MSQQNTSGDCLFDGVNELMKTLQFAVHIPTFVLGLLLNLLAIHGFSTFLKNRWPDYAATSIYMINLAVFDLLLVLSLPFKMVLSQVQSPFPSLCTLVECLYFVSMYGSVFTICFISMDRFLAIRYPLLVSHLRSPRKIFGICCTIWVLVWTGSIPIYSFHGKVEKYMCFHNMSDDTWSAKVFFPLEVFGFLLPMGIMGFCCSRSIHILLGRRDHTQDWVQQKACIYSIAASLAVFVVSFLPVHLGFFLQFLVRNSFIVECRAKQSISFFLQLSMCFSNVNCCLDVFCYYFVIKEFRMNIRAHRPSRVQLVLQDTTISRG

[15] = biological target: Delta-type opioid receptor (Homo sapiens, UniProt P41143); assay: SAR Analysis of Antagonists of the DOR Receptor using an Image-Based Assay - Set 3. [Related pubchem assays (depositor defined):AID1777, AID1785]; assay type: functional;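 further: U2OS cells expressing DOR1 and beta-arrestin GFP stimulated with 100 nM SNC80; imaging of GFP-tagged beta-arrestin moving into spots after receptor activation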
Delta-type opioid receptor, sequence (P41143 whole entry): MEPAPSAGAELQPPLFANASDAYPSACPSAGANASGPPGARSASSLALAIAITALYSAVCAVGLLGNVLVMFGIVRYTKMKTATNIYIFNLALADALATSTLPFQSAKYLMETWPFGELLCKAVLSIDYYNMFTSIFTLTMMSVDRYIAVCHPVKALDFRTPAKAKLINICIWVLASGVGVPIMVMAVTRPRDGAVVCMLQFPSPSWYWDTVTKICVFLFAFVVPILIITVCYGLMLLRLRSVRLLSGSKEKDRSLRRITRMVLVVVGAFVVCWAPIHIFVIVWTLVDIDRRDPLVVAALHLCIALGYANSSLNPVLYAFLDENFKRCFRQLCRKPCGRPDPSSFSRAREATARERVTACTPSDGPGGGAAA

[16] = biological target: T2, Kappa-type opioid receptor (Homo sapiens, UniProt P41145); assay: SAR analysis of small molecule antagonists of the kappa opioid receptor via a luminescent beta-arrestin assay - Set 6. [Related pubchem assays (depositor defined):AID1777, AID1778, AID1785, AID1786, AID1966, AID2133, AID2136, AID2285]; assay type: functional
T2 sequence (P41145 whole entry): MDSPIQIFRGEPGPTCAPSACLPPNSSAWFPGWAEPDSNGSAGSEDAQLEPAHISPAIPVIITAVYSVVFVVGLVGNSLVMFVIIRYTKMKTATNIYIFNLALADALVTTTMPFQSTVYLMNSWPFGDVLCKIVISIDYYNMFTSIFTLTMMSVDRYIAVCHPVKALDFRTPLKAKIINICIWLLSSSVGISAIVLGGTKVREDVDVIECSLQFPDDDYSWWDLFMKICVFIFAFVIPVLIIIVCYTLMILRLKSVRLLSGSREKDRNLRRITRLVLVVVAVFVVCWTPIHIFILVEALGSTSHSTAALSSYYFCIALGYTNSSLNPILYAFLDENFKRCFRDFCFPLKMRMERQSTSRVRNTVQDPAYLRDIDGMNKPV

[17] = biological target: T2, Kappa-type opioid receptor; assay: SAR analysis of Antagonists of the Kappa Opioid Receptor (KOR) using an Image-Based Assay - Set 4. [Related pubchem assays (depositor defined):AID1777, AID1785]; assay type: functional
[18] = biological target: Mu-type opioid receptor (Homo sapiens, UniProt P35372); assay: SAR Analysis of Antagonists of the MOR Receptor using an Image-Based Assay - Set 3. [Related pubchem assays (depositor defined):AID1777, AID1785, AID1786, AID1966, AID2133, AID2136, AID2284, AID2285, AID2420]; assay type: functional
Mu-type opioid receptor, sequence (P35372 whole entry): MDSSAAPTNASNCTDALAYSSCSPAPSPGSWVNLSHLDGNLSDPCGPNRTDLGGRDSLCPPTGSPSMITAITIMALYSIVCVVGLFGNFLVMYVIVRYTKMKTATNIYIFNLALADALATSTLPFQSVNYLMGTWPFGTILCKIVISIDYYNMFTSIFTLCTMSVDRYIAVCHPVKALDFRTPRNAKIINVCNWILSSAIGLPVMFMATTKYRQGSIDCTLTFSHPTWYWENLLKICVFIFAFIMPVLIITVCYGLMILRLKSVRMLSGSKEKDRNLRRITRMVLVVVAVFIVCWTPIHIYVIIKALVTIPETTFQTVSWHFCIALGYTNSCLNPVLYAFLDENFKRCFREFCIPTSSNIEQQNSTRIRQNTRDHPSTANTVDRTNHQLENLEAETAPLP

[19] = biological target: T2, Kappa-type opioid receptor; assay: SAR analysis of small molecule antagonists of the kappa opioid receptor via a luminescent beta-arrestin assay - Set 4. [Related pubchem assays (depositor defined):AID1777, AID1778, AID1785, AID1786, AID1966, AID2133, AID2136, AID2285]; assay type: functional
[20] = biological target: Alkaline phosphatase, placental type (Homo sapiens, UniProt P05187); assay: PLAP enzyme inhibitors, confirmation, biochemical, luminescence (AID 1512); assay type: functional
Alkaline phosphatase, placental type, sequence (P05187 whole entry): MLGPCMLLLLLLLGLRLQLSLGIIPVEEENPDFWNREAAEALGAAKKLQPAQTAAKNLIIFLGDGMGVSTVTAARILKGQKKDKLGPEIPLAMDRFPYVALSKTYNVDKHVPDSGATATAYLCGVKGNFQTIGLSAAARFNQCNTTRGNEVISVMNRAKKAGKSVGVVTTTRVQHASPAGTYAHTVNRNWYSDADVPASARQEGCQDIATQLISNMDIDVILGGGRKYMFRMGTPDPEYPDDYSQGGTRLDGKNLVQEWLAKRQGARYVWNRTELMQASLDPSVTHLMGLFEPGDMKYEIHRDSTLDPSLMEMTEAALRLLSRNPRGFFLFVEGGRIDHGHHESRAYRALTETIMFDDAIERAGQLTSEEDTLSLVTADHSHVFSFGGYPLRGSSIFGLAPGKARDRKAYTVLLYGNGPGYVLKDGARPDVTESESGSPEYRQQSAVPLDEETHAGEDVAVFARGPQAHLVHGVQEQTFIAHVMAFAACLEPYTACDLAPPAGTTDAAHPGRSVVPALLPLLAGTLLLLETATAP

[21] = biological target: T3, Alkaline phosphatase, tissue-nonspecific isozyme (Homo sapiens, UniProt P05186); assay: human TNAP enzyme inhibitors, SAR follow-up, biochemical, luminescent, dose response (AID 1056)
T3 sequence (P05186 whole entry): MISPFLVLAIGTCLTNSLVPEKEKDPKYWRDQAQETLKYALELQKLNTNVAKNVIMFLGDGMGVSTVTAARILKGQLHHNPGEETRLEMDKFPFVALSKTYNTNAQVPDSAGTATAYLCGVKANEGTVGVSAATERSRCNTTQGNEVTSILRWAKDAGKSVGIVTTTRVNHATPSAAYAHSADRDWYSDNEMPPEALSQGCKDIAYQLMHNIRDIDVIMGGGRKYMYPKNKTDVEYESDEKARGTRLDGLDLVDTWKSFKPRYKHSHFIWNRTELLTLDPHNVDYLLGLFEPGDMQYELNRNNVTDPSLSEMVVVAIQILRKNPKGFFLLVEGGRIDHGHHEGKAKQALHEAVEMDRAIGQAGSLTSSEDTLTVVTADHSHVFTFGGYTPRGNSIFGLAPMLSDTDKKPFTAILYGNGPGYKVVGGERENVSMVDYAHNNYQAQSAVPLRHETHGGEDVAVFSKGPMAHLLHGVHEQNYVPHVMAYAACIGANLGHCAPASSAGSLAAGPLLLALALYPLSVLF

Nucleotide-binding oligomerization domain-containing protein 2, sequence (Q9HC29 whole entry, the tested form may be a part): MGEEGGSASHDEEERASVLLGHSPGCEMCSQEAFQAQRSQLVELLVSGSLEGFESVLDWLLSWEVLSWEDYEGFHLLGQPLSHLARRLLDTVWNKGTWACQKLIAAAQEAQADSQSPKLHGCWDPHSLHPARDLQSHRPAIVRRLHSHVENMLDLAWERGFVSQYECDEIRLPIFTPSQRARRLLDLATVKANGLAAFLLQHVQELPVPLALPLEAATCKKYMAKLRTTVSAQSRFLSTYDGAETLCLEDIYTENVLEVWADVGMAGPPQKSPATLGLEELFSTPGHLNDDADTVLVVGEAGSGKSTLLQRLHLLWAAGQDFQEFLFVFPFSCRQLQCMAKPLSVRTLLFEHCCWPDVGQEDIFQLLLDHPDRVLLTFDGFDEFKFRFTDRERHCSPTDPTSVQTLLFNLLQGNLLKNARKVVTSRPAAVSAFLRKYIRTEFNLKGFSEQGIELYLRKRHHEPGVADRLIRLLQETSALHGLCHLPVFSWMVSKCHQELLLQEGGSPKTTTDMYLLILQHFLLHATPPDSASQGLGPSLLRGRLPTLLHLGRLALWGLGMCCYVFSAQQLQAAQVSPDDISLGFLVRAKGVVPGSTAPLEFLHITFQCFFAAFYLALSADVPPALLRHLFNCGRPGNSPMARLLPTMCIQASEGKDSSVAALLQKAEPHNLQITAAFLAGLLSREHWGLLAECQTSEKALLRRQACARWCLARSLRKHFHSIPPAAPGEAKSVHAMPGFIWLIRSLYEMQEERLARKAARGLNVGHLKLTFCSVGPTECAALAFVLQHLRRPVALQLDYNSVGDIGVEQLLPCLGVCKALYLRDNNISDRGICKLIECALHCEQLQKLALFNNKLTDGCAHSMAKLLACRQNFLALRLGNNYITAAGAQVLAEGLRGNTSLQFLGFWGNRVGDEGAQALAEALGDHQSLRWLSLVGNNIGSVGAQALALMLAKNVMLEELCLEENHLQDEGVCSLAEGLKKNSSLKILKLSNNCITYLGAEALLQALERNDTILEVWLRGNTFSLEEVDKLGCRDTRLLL

SMILES: O=C(/C(=C/c1cccc(Cl)c1)c1nc2ccccc2[nH]1)c1ccccc1
EC50 [1]: > 20 µM (inactive)
AC50 [2]: 4.22 µM (active)
EC50 [3]: 8.48 µM (active)
EC50 [4]: 0.755 µM (active)
EC50 [5]: > 20 µM (inactive)
IC50 [6]: 13.4 µM (active)
EC50 [7]: 3.7 µM (active)
IC50 [8]: > 20 µM (inactive)
IC50 [9]: 1.63 µM (active)
AC50 [10]: 1.97 µM (active)
IC50 [11]: 3.14 µM (active)
EC50 [12]: 3.93 µM (active)

SMILES: CCc1nnc2n1N=C(c1ccc(-c3cc(Cl)ccc3Cl)o1)CS2
IC50 [13]: 44 µM (not active)
EC50 [7]: 95.9 µM (active)
EC50 [14]: 0.734 µM (active)
EC50 [12]: 27.1 µM (active)

IC50 [15]: > 32 µM (inactive)
IC50 [16]: > 20 µM (inactive)
IC50 [17]: 5.98 µM (active)
IC50 [18]: > 32 µM (inactive)
IC50 [19]: > 20 µM (inactive)
SMILES: Cc1ccc(S(=O)(=O)NCc2ccc(C(=O)NCCN3CCc4ccccc4C3)cc2)cc1

IC50 [20]: 5.37 µM (active)
IC50 [21]: > 100 µM (inactive)
SMILES: O=C(Cn1ccnc1)c1ccc(O)c(O)c1
